Results reported in patent publication US10144706B2 (BRISTOL-MYERS SQUIBB COMPANY, priority 2016, dated 2018).
Read-outs that look alike come from different tables or passages of the source.

Target: T1, PD-1/PD-L1 interaction (PD-1-Ig / PD-L1-His) (Homo sapiens, UniProt Q9NZQ7)
T1 construct: hPDL1(18-239)-TVMV-His; TVMV protease site linker (C); made in house; host or cells: HEK293T
Test: PD-1/PD-L1 Homogenous Time-Resolved Fluorescence (HTRF) binding assay
Details: PD-L1-His 10 nM, PD-1-Ig 20 nM, read-out: Range or IC50
Method in brief: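 HTRF detection used 1 nM europium-cryptate anti-Ig and 20 nM APC anti-His. Compounds first saw 10 nM PD-L1-His for 15 min, and 20 nM PD-1-Ig was then added for another 15 min. Buffer was dPBS plus 0.1% BSA and 0.05% Tween-20. All concentrations are final.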

T1 sequence (Q9NZQ7 with tags, fused parts or gaps): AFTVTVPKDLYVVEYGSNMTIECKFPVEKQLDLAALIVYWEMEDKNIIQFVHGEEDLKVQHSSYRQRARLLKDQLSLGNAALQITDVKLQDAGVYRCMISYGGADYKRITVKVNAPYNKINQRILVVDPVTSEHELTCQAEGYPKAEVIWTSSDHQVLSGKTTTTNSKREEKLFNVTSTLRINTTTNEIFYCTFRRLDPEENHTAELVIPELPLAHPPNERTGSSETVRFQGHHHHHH

IC50 (IC50 range class) [nM] | IC50 (numeric IC50) [nM] | Structure (SMILES)
20.1 to 90 |  | N#Cc1cncc(COc2cc(OCc3cccc(-c4cccc(COc5cc(OCc6cncc(C#N)c6)c(CN6CCCC[C@H]6C(=O)O)cc5Cl)c4)c3)c(Cl)cc2CO)c1 [Example 50020]
0.04 to 20 |  | Cc1c(COc2cc(OCc3cncc(C#N)c3)c(CO)cc2Cl)cccc1-c1cccc(COc2cc(OCc3cncc(C#N)c3)c(CN(CC(C)C)C(CCO)C(=O)O)cc2Cl)c1C (centres unmarked) [Example 50170]
 | 1.1 | Cc1c(COc2cc(OCc3cncc(C#N)c3)c(CNC(C)(CO)C(=O)O)cc2Cl)cccc1-c1cccc(COc2cc(OCc3cncc(C#N)c3)c(CNC(C)(CO)C(=O)O)cc2Cl)c1C (centres unmarked) [Example 40210]
90.1 to 1000 |  | Cc1c(OCCCN2CCC[C@@H](O)C2)cccc1-c1cccc(OCCCN2CC[C@@H](O)C2)c1C [Example 2114, (R)-1-(3-((3′-(3-((R)-3-hydroxypyrrolidin-1-yl)propoxy)-2,2′-dimethyl-[1,1′-biphenyl]-3-yl)oxy)propyl)piperidin-3-ol]
20.1 to 90 |  | COc1ccc(CNCc2cc(Cl)c(OCc3cccc(-c4cccc(COc5cc(OCc6cncc(C#N)c6)c(CNCc6ccc(OC)cc6OC)cc5Cl)c4C)c3C)cc2OCc2cncc(C#N)c2)c(OC)c1 [Example 41230]
90.1 to 1000 |  | Cc1c(OCCCN[C@H](CO)[C@H](O)c2ccccc2)cccc1-c1cccc(OCCCN[C@H](CO)[C@H](O)c2ccccc2)c1C [Example 2097]
1000 to 10000 |  | Cc1cc(OCCCN2CC[C@@H](O)C2)ccc1-c1cccc(OCCCN2CC[C@@H](O)C2)c1C [Example 3006, (3R,3′R)-1,1′-(((2,2′-dimethyl-[1,1′-biphenyl]-3,4′-diyl)bis(oxy))bis(propane-3,1-diyl))bis(pyrrolidin-3-ol)]
90.1 to 1000 |  | Cc1c(COc2cc(OCc3cncc(C#N)c3)c(Cl)cc2Cl)cccc1-c1cccc(COc2cc(OCc3cncc(C#N)c3)c(CN[C@H](C(=O)O)[C@@H](C)[C@H](C)O)cc2Cl)c1C [Example 70050]
0.04 to 20 |  | Cc1c(COc2cc(OCc3cncc(C#N)c3)c(CN3CC[C@@H](O)C3)cc2Cl)cccc1-c1cccc(COc2cc(OCc3cncc(C#N)c3)c(CN3CC[C@@H](O)C3)cc2Cl)c1C [Example 2125, 5,5′-((((((2,2′-dimethyl-[1,1′-biphenyl]-3,3′-diyl)bis(methylene))bis(oxy))bis(4-chloro-6-(((R)-3-hydroxypyrrolidin-1-yl)methyl)-3,1-phenylene))bis(oxy))bis(methylene))dinicotinonitrile]
0.04 to 20 |  | COCC(O)CNCCCOc1cccc(-c2cccc(OCCCNCC(O)COC)c2C)c1C (centres unmarked) [Example 2094, 3,3′-((((2,2′-dimethyl-[1,1′-biphenyl]-3,3′-diyl)bis(oxy))bis(propane-3,1-diyl))bis(azanediyl))bis(1-methoxypropan-2-ol)]
0.04 to 20 |  | Cc1c(COc2cc(OCc3cncc(C#N)c3)c(CNC/C=C/C(=O)O)cc2Cl)cccc1-c1cccc(COc2cc(OCc3cncc(C#N)c3)c(CNC/C=C/C(=O)O)cc2Cl)c1C [Example 40280]
20.1 to 90 |  | Cc1c(COc2cc(OCc3ccc(-n4cccn4)nc3)c(CNC(CO)CO)cc2Cl)cccc1-c1cccc(COc2cc(OCc3ccc(-n4cccn4)nc3)c(CNC(CO)CO)cc2Cl)c1C [Example 5019, 2,2′-((((((2,2′-dimethyl-[1,1′-biphenyl]-3,3′-diyl)bis(methylene))bis(oxy))bis(2-((6-(1H-pyrazol-1-yl)pyridin-3-yl)methoxy)-5-chloro-4,1-phenylene))bis(methylene))bis(azanediyl))bis(propane-1,3-diol)]
 | 81 | Cc1c(OCCCNC[C@H](O)c2ccccc2)cccc1-c1cccc(OCCCN2CC[C@@H](O)C2)c1C [Example 2112, (R)-1-(3-((3′-(3-(((R)-2-hydroxy-2-phenylethyl)amino)propoxy)-2,2′-dimethyl-[1,1′-biphenyl]-3-yl)oxy)propyl)pyrrolidin-3-ol]
90.1 to 1000 |  | COc1cc(OCc2cccc(-c3cccc(COc4cc(OC)c(CN(C)Cc5cncs5)cc4Cl)c3C)c2C)c(Cl)cc1CN(C)Cc1cncs1 [Example 5039, 1,1′-((((2,2′-dimethyl-[1,1′-biphenyl]-3,3′-diyl)bis(methylene))bis(oxy))bis(5-chloro-2-methoxy-4,1-phenylene))bis(N-methyl-N-(thiazol-5-ylmethyl)methanamine)]
20.1 to 90 |  | Cc1c(OCCCN2CC[C@H](O)[C@@H](O)C2)cccc1-c1cccc(OCCCN2CC[C@H](O)[C@@H](O)C2)c1C [Example 2084, (3S,3′S,4S,4′S)-1,1′-(((2,2′-dimethyl-[1,1′-biphenyl]-3,3′-diyl)bis(oxy))bis(propane-3,1-diyl))bis(piperidine-3,4-diol)]
1000 to 10000 |  | COC(=O)[C@H](NCc1cc(Cl)c(OCc2cccc(-c3cccc(COc4cc(OCc5cncc(C#N)c5)c(CN[C@H](C(=O)O)C(=O)OC)cc4Cl)c3C)c2C)cc1OCc1cncc(C#N)c1)C(=O)O [Example 40910]

IC50 (IC50 range class) [nM] | IC50 (numeric IC50) [nM] | Structure (SMILES)
 | 0.04 | Cc1c(COc2cc(OCc3cncc(C#N)c3)c(CN[C@@H](CCO)C(=O)O)cc2Cl)cccc1-c1cccc(COc2cc(OCc3cncc(C#N)c3)c(CN[C@H](CCO)C(=O)O)cc2Cl)c1C [Example 40770]
0.04 to 20 |  | COCCC(NCc1cc(Cl)c(OCc2cccc(-c3cccc(COc4cc(OCc5cncc(C#N)c5)c(CNC(CCOC)C(=O)O)cc4Cl)c3C)c2C)cc1OCc1cncc(C#N)c1)C(=O)O (centres unmarked) [Example 40780]
0.04 to 20 |  | Cc1c(COc2cc(OCc3cncc(C#N)c3)c(CN[C@@H](C(=O)O)[C@H](C)O)cc2Cl)cccc1-c1cccc(COc2cc(OCc3cncc(C#N)c3)c(CN[C@@H](C(=O)O)[C@H](C)O)cc2Cl)c1C [Example 40880]
1000 to 10000 |  | Cc1c(OCCCN2CC[C@@H](O)C2)cccc1-c1cccc(OCCCc2ccccc2)c1 [Example 3027, (R)-1-(3-((2-methyl-3′-(3-phenylpropoxy)-[1,1′-biphenyl]-3-yl)oxy)propyl)pyrrolidin-3-ol]
20.1 to 90 |  | Cc1c(OCCCNCC(O)c2cccnc2)cccc1-c1cccc(OCCCN2CC[C@@H](O)C2)c1C (mixture of isomers) [Example 2040, (3R)-1-(3-((3′-(3-((2-hydroxy-2-(pyridin-3-yl)ethyl)amino)propoxy)-2,2′-dimethyl-[1,1′-biphenyl]-3-yl)oxy)propyl)pyrrolidin-3-ol]
90.1 to 1000 |  | Cc1c(OCCCNCCC(N)=O)cccc1-c1cccc(OCCCN2CC[C@@H](O)C2)c1C [Example 2038, (R)-3-((3-((3′-(3-(3-hydroxypyrrolidin-1-yl)propoxy)-2,2′-dimethyl-[1,1′-biphenyl]-3-yl)oxy)propyl)amino)propanamide]
90.1 to 1000 |  | Cc1c(OCCCN2CCC[C@H](C(=O)O)C2)cccc1-c1cccc(OCCCN2CCC[C@H](C(=O)O)C2)c1C [Example 2082, (3S,3′S)-1,1′-(((2,2′-dimethyl-[1,1′-biphenyl]-3,3′-diyl)bis(oxy))bis(propane-3,1-diyl))bis(piperidine-3-carboxylic acid)]
90.1 to 1000 |  | Cc1c(OCCCN[C@@H](CO)c2ccccc2)cccc1-c1cccc(OCCCN2CC[C@@H](O)C2)c1C [Example 2069, (R)-1-(3-((3′-(3-(((R)-2-hydroxy-1-phenylethyl)amino)propoxy)-2,2′-dimethyl-[1,1′-biphenyl]-3-yl)oxy)propyl)pyrrolidin-3-ol]
0.04 to 20 |  | Cc1c(OCCCN(C)CC(O)CO)cccc1-c1cccc(OCCCN(C)CC(O)CO)c1C (mixture of isomers) [Example 2078, 3,3′-((((2,2′-dimethyl-[1,1′-biphenyl]-3,3′-diyl)bis(oxy))bis(propane-3,1-diyl))bis(methylazanediyl))bis(propane-1,2-diol)]
0.04 to 20 |  | Cc1c(COc2cc(OCc3cncc(C#N)c3)c(CO)cc2Cl)cccc1-c1cccc(COc2cc(OCc3cncc(C#N)c3)c(CNCC(O)C(=O)O)cc2Cl)c1C (centres unmarked) [Example 50300]
90.1 to 1000 |  | Cc1c(OCCCN[C@@H](CO)C(=O)O)cccc1-c1cccc(OCCCN2CC[C@@H](O)C2)c1C [Example 2012, (3-((3′-(3-((R)-3-hydroxypyrrolidin-1-yl)propoxy)-2,2′-dimethyl-[1,1′-biphenyl]-3-yl)oxy)propyl)-L-serine]
20.1 to 90 |  | Cc1c(OCCCNCCO)cccc1-c1cccc(OCCCN2CC[C@@H](O)C2)c1C [Example 2014, (R)-1-(3-((3′-(3-((2-hydroxyethyl)amino)propoxy)-2,2′-dimethyl-[1,1′-biphenyl]-3-yl)oxy)propyl)pyrrolidin-3-ol]
90.1 to 1000 |  | Cc1c(OCCCN[C@H](CO)c2ccccc2)cccc1-c1cccc(OCCCN2CC[C@@H](O)C2)c1C [Example 2057, (R)-1-(3-((3′-(3-(((S)-2-hydroxy-1-phenylethyl)amino)propoxy)-2,2′-dimethyl-[1,1′-biphenyl]-3-yl)oxy)propyl)pyrrolidin-3-ol]
90.1 to 1000 |  | Cc1c(OCCCN[C@@H](CO)Cc2ncn(C)c2Cl)cccc1-c1cccc(OCCCN2CC[C@@H](O)C2)c1C [Example 2071, (R)-1-(3-((3′-(3-(((R)-1-(5-chloro-1-methyl-1H-imidazol-4-yl)-3-hydroxypropan-2-yl)amino)propoxy)-2,2′-dimethyl-[1,1′-biphenyl]-3-yl)oxy)propyl)pyrrolidin-3-ol]
20.1 to 90 |  | Cc1c(OCCCNCCS(C)(=O)=O)cccc1-c1cccc(OCCCN2CC[C@@H](O)C2)c1C [Example 2010, (R)-1-(3-((2,2′-dimethyl-3′-(3-((2-(methylsulfonyl)ethyl)amino)propoxy)-[1,1′-biphenyl]-3-yl)oxy)propyl)pyrrolidin-3-ol]
90.1 to 1000 |  | Cc1c(OCCCN2CC(N(C)C)C2)cccc1-c1cccc(OCCCN2CC(N(C)C)C2)c1C [Example 2087, 1,1′-(((2,2′-dimethyl-[1,1′-biphenyl]-3,3′-diyl)bis(oxy))bis(propane-3,1-diyl))bis(N,N-dimethylazetidin-3-amine)]
